The values below come from ChEMBL document CHEMBL5143655, “Synthesis and biological evaluation of 1,2,4-triazole derivatives as potential Nrf2 activators for the treatment of cerebral ischemic injury” (Eur J Med Chem, 2022).

Data set [1] relates to PC-12. The experiment in a line: Neuroprotective activity against SNP induced rat PC-12 cells assessed as increase in cell viability at 5 uM preincubated for 2 hrs followed by SNP stimulation for 24 hrs by MTT assay relative to control. It counts as functional. (Tetrazolium dyes change colour on reduction, which living cells bring about.)
Data set [2] has as its system PC-12. Kind of data set: Neuroprotective activity against SNP induced rat PC-12 cells assessed as increase in cell viability at 1 uM preincubated for 2 hrs followed by SNP stimulation for 24 hrs by MTT assay relative to control. It counts as functional.
Data set [3] relates to PC-12. Kind of data set: Neuroprotective activity against SNP induced rat PC-12 cells assessed as increase in cell viability at 10 uM preincubated for 2 hrs followed by SNP stimulation for 24 hrs by MTT assay relative to control. The data set is classed as functional.
A short description of data set [4]: Cytotoxicity against human HaCaT cells assessed as reduction in cell viability by MTT assay. The data set is classed as toxicity, cell-based.
Data set [5] in a line: Cytotoxicity against rat PC-12 cells assessed as reduction in cell viability by MTT assay. The data set is classed as toxicity, cell-based.
The next data set concerns Rattus norvegicus. The experiment in a line: Neuroprotective activity in Sprague-Dawley rat model of middle cerebral artery occlusion-induced ischemia-reperfusion injury assessed as decrease in cerebral infarct volume at 5 mg/kg, ip preincubated for 1 hrs followed by MCAO operation and further incubated with compound for 4 hrs after reperfusion by TTC staining based assay. The data set is classed as functional. Details: scale not given: the % may be the effect or the level left. As to conditions: time 5 hrs.

Data set [6] in a line: Metabolic stability in human plasma assessed as parent compound remaining at 200 uM measured after 120 min by LC-MS/MS analysis relative to control. The data set is classed as ADME, cell-free. As to conditions: read-out: Stability.
A short description of data set [7]: Metabolic stability in human plasma assessed as parent compound remaining at 200 uM measured after 90 min by LC-MS/MS analysis relative to control. It counts as ADME, cell-free. Particulars: read-out: Stability.
Data set [8] can be described thus: Metabolic stability in human plasma assessed as parent compound remaining at 200 uM measured after 15 min by LC-MS/MS analysis relative to control. It counts as ADME, cell-free. Particulars: read-out: Stability.
Data set [9] in a line: Metabolic stability in human plasma assessed as parent compound remaining at 200 uM measured after 60 min by LC-MS/MS analysis relative to control. It counts as ADME, cell-free. Particulars: read-out: Stability.
A short description of data set [10]: Metabolic stability in human plasma assessed as half life at 200 uM by LC-MS/MS analysis relative to control. It counts as ADME, cell-free.
The nature of data set [11]: Plasma protein binding in Sprague-Dawley rat plasma at 10 uM incubated for 6 hrs by LC-MS/MS based equilibrium dialysis method. The data set is classed as ADME, cell-free. As to conditions: read-out: PPB (converted). A general note: In equilibrium dialysis free small molecules cross a membrane that holds back macromolecules.
The nature of data set [12]: Plasma protein binding in human plasma at 10 uM incubated for 6 hrs by LC-MS/MS based equilibrium dialysis method. It counts as ADME, cell-free. As to conditions: read-out: PPB (converted).

For `Oc1cc(C(F)(F)F)ccc1-c1nc(-c2ccccc2O)n(-c2ccccc2Cl)n1`, the Activity in the data set with PC-12 [1] worked out at 90.63%; with PC-12 [2], 70.08%; in the data set with PC-12 [3] it was 102.19%.

The term IC50 denotes the concentration that inhibits the measured activity by half. In the case of `Oc1cc(C(F)(F)F)ccc1-c1nc(-c2ccccc2O)n(-c2ccc(Br)cc2)n1`, the results for the IC50 in data set [4] and in data set [5] were 29.6 µM and 66.8 µM, respectively. For the same compound, the results for the Activity with PC-12 [1], with PC-12 [2] and with PC-12 [3] were 89.76%, 69.35% and 100.49%, respectively.

For `CC1=NN(c2ccccc2)C(=O)C1` [EDARAVONE], the Activity in the data set with PC-12 [1] is on record as 70.3%; with Rattus norvegicus it was 12.77%; in the data set on PC-12 [2] it was 58.41%; in the data set with PC-12 [3], 80.25%.

Usually half-life stands for how long it takes for the measured level to halve. `CC(C)[N+](C)(CCOC(=O)C1c2ccccc2Oc2ccccc21)C(C)C` [PROPANTHELINE]: the remaining at 2 h, 200 µM in data set [6] was determined as 2.41%. The remaining at 1.5 h, 200 µM in data set [7] came out at 17.3%. Moreover, the remaining at 0.25 h, 200 µM in [8] was 63.4%. In addition, the remaining at 1 h, 200 µM in [9] was found to be 34.5%. Further, in [10], the half-life at 200 µM came out at 23.5 min.

Turning to `Oc1cc(C(F)(F)F)ccc1-c1nc(-c2ccccc2O)n(-c2cccc(F)c2)n1`, the Activity in the data set with PC-12 [1] is reported as 87.66%; in the data set on PC-12 [2], 67.24%; in the data set on PC-12 [3] it was 98.25%.

Consider `Oc1cc(C(F)(F)F)ccc1-c1nc(-c2ccccc2O)n(-c2ccc(OC(F)(F)F)cc2)n1`, for which the Activity with PC-12 [1] came to 84.94%; in the data set with PC-12 [2], 65.49%; with PC-12 [3], 92.54%.

As to `CCc1ccc(-n2nc(-c3ccc(C(F)(F)F)cc3O)nc2-c2ccccc2O)cc1`, the figures for the IC50 in data set [4] and in [5] were 57 µM and 147 µM, respectively. In addition, the Activity stood at 95.36% with PC-12 [1], 64.43% in the data set with PC-12 [2] and 106.61% in the data set on PC-12 [3].

For `Oc1cc(C(F)(F)F)ccc1-c1nc(-c2ccccc2O)n(-c2cc(C(F)(F)F)cc(C(F)(F)F)c2)n1`, the figures for the Activity with PC-12 [1], in the data set with PC-12 [2] and in the data set on PC-12 [3] were 75.68%, 68.89% and 86.16%, respectively.

For `Oc1cc(C(F)(F)F)ccc1-c1nc(-c2ccccc2O)n(-c2ccc(I)cc2)n1`, the figures for the IC50 in [4] and in data set [5] were 32.1 µM and 73.3 µM, respectively. The Activity in the data set with PC-12 [1] came to 94.41%; in the data set with PC-12 [2], 70.13%; in the data set on PC-12 [3], 104.51%.

For `COc1ccc(-n2nc(-c3ccc(C(F)(F)F)cc3O)nc2-c2ccccc2O)cc1`, the Activity with PC-12 [1] is recorded as 86.56%; with PC-12 [2], 69.04%; in the data set with PC-12 [3] it was 98.85%.

For the compound `Oc1cc(C(F)(F)F)ccc1-c1nc(-c2ccccc2O)n(-c2cccc(C(F)(F)F)c2)n1`, the half-maximal inhibitory concentration (IC50) was found to be 54.3 µM in data set [4] and 49.7 µM in [5]. Also, the Activity with PC-12 [1] amounted to 92.2%; in the data set on PC-12 [2] it was 71.47%; in the data set on PC-12 [3], 99.9%.

Consider `Oc1cc(C(F)(F)F)ccc1-c1nc(-c2ccccc2O)n(-c2cccc(Cl)c2)n1`, for which the values for the Activity in the data set with PC-12 [1], in the data set with PC-12 [2] and in the data set with PC-12 [3] were 92.73%, 72.33% and 100.29%, respectively.

Consider `COc1cccc(-n2nc(-c3ccc(C(F)(F)F)cc3O)nc2-c2ccccc2O)c1`, for which the IC50 in data set [4] was found to be 81.1 µM; in [5], 56.4 µM. Besides, the results for the Activity with PC-12 [1], in the data set on PC-12 [2] and in the data set on PC-12 [3] were 96.76%, 68.27% and 105.81%, respectively.

On to `Oc1cc(C(F)(F)F)ccc1-c1nc(-c2ccccc2O)n(-c2ccc(Cl)cc2Cl)n1`, for which the Activity with PC-12 [1] came out at 86.73%; with PC-12 [2], 68.99%; with PC-12 [3] it was 95.21%.

As for `CC(C)(C)c1ccc(-n2nc(-c3ccc(C(F)(F)F)cc3O)nc2-c2ccccc2O)cc1`, the values for the Activity in the data set on PC-12 [1], in the data set on PC-12 [2] and in the data set with PC-12 [3] were 77.77%, 67.29% and 81.14%, respectively.

For the compound `Cc1ccc(-n2nc(-c3ccc(C(F)(F)F)cc3O)nc2-c2ccccc2O)cc1`, the IC50 turned out to be 81.8 µM in [4] and 113 µM in data set [5]. Moreover, the values for the Activity with PC-12 [1], in the data set on PC-12 [2] and in the data set on PC-12 [3] were 94.12%, 71.49% and 102.45%, respectively.

With `Oc1cc(C(F)(F)F)ccc1-c1nc(-c2ccccc2O)n(-c2cc(F)cc(F)c2)n1`, the figures for the IC50 in data set [4] and in data set [5] were 45.4 µM and 53.7 µM, respectively. For the same compound, the Activity came out at 100.23% in the data set on PC-12 [1], 75.47% with PC-12 [2] and 106.29% in the data set with PC-12 [3].

With `CC(C)c1ccc(-n2nc(-c3ccc(C(F)(F)F)cc3O)nc2-c2ccccc2O)cc1`, the results for the concentration for half-maximal inhibition (IC50) in data set [4] and in data set [5] were 51.4 µM and 144 µM, respectively. The Activity worked out at 100.41% with PC-12 [1], 69.66% in the data set with PC-12 [2] and 108% in the data set with PC-12 [3].

`Oc1cc(C(F)(F)F)ccc1-c1nc(-c2ccccc2O)n(-c2ccccc2F)n1`: the Activity in the data set with PC-12 [1] is listed as 86.63%; with PC-12 [2] it was 63.42%; with PC-12 [3], 100.18%.

For the compound `Oc1cc(C(F)(F)F)ccc1-c1nc(-c2ccccc2O)n(-c2ccc(Cl)cc2)n1`, the values for the Activity with PC-12 [1], in the data set with PC-12 [2] and in the data set with PC-12 [3] were 87.25%, 67.99% and 96.09%, respectively.

As for `Oc1cc(C(F)(F)F)ccc1-c1nc(-c2ccccc2O)n(-c2ccc(C(F)(F)F)cc2)n1`, the Activity worked out at 90.51% with PC-12 [1], 70.66% in the data set on PC-12 [2] and 101.67% with PC-12 [3].

On to `Cc1ccc(-n2nc(-c3ccc(C(F)(F)F)cc3O)nc2-c2ccccc2O)c(C)c1`, for which the IC50 in [4] came out at 94.8 µM; in [5] it was 230 µM. Also, the values for the Activity with PC-12 [1], in the data set on PC-12 [2] and with PC-12 [3] were 93.31%, 73.72% and 106.25%, respectively.

With `Oc1cc(C(F)(F)F)ccc1-c1nc(-c2ccccc2O)n(-c2ccc(F)cc2F)n1`, the Activity with PC-12 [1] was 83.53%; in the data set with PC-12 [2] it was 65.92%; in the data set on PC-12 [3] it was 97.86%.

For `N#Cc1ccc(-n2nc(-c3ccc(C(F)(F)F)cc3O)nc2-c2ccccc2O)cc1`, the Activity in the data set on PC-12 [1] stood at 86.8%; in the data set on PC-12 [2], 66.6%; in the data set with PC-12 [3], 98.91%.

As to `COc1ccccc1-n1nc(-c2ccc(C(F)(F)F)cc2O)nc1-c1ccccc1O`, the Activity turned out to be 85.59% with PC-12 [1], 70.74% in the data set on PC-12 [2] and 96.2% in the data set with PC-12 [3].

For `Oc1cc(C(F)(F)F)ccc1-c1nc(-c2ccccc2O)n(-c2ccccc2C(F)(F)F)n1`, the Activity is recorded as 80.01% in the data set on PC-12 [1], 70.97% with PC-12 [2] and 92.2% in the data set with PC-12 [3].

As to `Oc1cc(C(F)(F)F)ccc1-c1nc(-c2ccccc2O)n(-c2ccc(F)cc2)n1`, the Activity in the data set on PC-12 [1] is on record as 86.71%; in the data set with PC-12 [2], 67.16%; in the data set with PC-12 [3], 99.83%.

Regarding `CC(=O)N1CCN(c2ccc(OCC3COC(Cn4ccnc4)(c4ccc(Cl)cc4Cl)O3)cc2)CC1` (configuration not stated) [KETOCONAZOLE], the fraction unbound at 6 h, 10 µM in data set [11] was 0.0032; in data set [12], 0.0128.

On to `Oc1ccccc1-c1nc(-c2ccc(C(F)(F)F)cc2)no1`, for which the results for the Activity in the data set with PC-12 [1], in the data set on PC-12 [2] and in the data set on PC-12 [3] were 81.39%, 75.88% and 84.7%, respectively.
